# Assay results taken from PMC6467689 (ACS infectious diseases, 2018).
# Legend:
# MukB [1] = molecular target: T1, MukB (Escherichia coli, UniProt P22523); assay: SPR; format: binding; conditions: 25 uM compound, 20 mM HEPES-KOH pH 7.0, 50 mM NaCl, 0.5% DMSO
# MukB [2] = molecular target: T1, MukB; assay: magnetic bead DNA bridging pull-down; format: biochemical; conditions: 20 mM HEPES pH 7.7, 50 mM NaCl, 2 mM MgCl2, 5% glycerol, 1 mM DTT
# T1 sequence (P22523 whole entry): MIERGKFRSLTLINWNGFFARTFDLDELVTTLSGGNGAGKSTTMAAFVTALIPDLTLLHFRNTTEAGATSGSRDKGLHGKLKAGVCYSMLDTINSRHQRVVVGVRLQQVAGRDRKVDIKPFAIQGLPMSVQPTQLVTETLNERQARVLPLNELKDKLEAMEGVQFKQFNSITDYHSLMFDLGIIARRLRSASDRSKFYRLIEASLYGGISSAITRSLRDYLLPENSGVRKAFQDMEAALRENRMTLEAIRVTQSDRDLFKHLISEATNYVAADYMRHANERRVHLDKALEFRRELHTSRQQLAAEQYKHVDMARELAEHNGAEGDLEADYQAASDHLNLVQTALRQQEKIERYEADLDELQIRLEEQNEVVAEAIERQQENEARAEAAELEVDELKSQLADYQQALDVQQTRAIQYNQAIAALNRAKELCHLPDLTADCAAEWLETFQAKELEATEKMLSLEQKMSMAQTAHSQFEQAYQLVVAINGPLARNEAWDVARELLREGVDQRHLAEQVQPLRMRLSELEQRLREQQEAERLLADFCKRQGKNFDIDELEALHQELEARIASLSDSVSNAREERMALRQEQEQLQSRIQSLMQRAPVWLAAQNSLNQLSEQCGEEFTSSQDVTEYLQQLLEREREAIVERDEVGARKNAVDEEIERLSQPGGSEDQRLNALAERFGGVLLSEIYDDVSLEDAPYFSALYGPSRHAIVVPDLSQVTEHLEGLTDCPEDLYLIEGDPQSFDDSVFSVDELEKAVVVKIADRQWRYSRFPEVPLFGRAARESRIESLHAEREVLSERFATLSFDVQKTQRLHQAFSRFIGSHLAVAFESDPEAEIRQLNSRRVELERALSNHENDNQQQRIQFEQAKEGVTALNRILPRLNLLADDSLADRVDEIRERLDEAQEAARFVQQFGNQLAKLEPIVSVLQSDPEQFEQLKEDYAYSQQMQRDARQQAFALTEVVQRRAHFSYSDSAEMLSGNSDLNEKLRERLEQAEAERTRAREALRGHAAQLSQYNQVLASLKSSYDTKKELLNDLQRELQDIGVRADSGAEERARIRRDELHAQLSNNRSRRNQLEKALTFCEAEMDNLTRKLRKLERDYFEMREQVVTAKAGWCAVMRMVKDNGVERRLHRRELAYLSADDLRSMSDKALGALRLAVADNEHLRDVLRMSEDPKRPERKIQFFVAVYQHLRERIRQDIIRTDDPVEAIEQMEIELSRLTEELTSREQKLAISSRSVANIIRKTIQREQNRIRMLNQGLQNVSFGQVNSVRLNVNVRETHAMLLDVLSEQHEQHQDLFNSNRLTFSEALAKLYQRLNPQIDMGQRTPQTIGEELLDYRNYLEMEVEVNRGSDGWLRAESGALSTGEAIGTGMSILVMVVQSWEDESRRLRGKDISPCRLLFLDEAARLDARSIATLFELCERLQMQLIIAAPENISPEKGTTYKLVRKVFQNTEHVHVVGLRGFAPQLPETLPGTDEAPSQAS
Structure (SMILES),"SPR (Biacore, MukB immobilised on CM5 chip) (MukB [1])",inhibition of DNA bridging (MukB [2])
COC1=C(N)C(=O)c2nc(-c3nc(C(=O)O)c(C)c(-c4ccc(OC)c(OC)c4O)c3N)ccc2C1=O [NSC45383],A much weaker binding could be detected for NSC71795 (ellipticine) and NSC45383 (streptonigrin),"Michellamine B, NSC71795 and, to a smaller degree, NSC45383, inhibit MukB mediated DNA bridging"
"COc1cc(C)cc2c(-c3c(O)cc(O)c4c3C[C@H](C)N[C@H]4C)cc(-c3cc(-c4c(O)cc(O)c5c4C[C@H](C)N[C@H]5C)c4cc(C)cc(OC)c4c3O)c(O)c12 [NSC661755, Michellamine B]",–,"Michellamine B, NSC71795 and, to a smaller degree, NSC45383, inhibit MukB mediated DNA bridging"
Cc1c2ccncc2c(C)c2c1[nH]c1ccccc12 [NSC71795],A much weaker binding could be detected for NSC71795 (ellipticine) and NSC45383 (streptonigrin),"Michellamine B, NSC71795 and, to a smaller degree, NSC45383, inhibit MukB mediated DNA bridging"
